Assay results reported in ChEMBL document CHEMBL1201862, “PubChem BioAssay data set” (2004).
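Assay format: 96-well plates, 48-hour exposure. GI50 marks 50% less growth.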 Activity calls are given as the source filed them. Rule as the data show it: active = GI50 up to about 1.1 µM and inactive = higher.

Legend:
Assay in all cases: NCI-60 cell line screen, 48 h
786-0 = tested on: 786-0
A498 = tested on: A498
A549 = tested on: A549
ACHN = tested on: ACHN
BT-549 = tested on: BT-549
CAKI-1 = tested on: CAKI-1
COLO 205 = tested on: COLO 205
DU-145 = tested on: DU-145
EKVX = tested on: EKVX
HCT-116 = tested on: HCT-116
HCT-15 = tested on: HCT-15
HL-60 = tested on: HL-60
HOP-62 = tested on: HOP-62
HOP-92 = tested on: HOP-92
HT-29 = tested on: HT-29
Hs-578T = tested on: Hs-578T
IGROV-1 = tested on: IGROV-1
K562 = tested on: K562
KM12 = tested on: KM12
LOX IMVI = tested on: LOX IMVI
M14 = tested on: M14
MCF7 = tested on: MCF7
MDA-MB-231 = tested on: MDA-MB-231
MDA-MB-435 = tested on: MDA-MB-435
MDA-N = tested on: MDA-N
NCI-H226 = tested on: NCI-H226
NCI-H23 = tested on: NCI-H23
NCI-H460 = tested on: NCI-H460
NCI-H522 = tested on: NCI-H522
NCI/ADR-RES = tested on: NCI/ADR-RES
OVCAR-3 = tested on: OVCAR-3
OVCAR-4 = tested on: OVCAR-4
OVCAR-5 = tested on: OVCAR-5
OVCAR-8 = tested on: OVCAR-8
PC-3 = tested on: PC-3
RPMI-8226 = tested on: RPMI-8226
SF-268 = tested on: SF-268
SF-295 = tested on: SF-295
SK-MEL-28 = tested on: SK-MEL-28
SK-MEL-2 = tested on: SK-MEL-2
SK-MEL-5 = tested on: SK-MEL-5
SN12C = tested on: SN12C
SNB-19 = tested on: SNB-19
SW-620 = tested on: SW-620
T47D = tested on: T47D
TK-10 = tested on: TK-10
U-251 = tested on: U-251
UACC-257 = tested on: UACC-257
UACC-62 = tested on: UACC-62
UO-31 = tested on: UO-31

COc1cc(NS(C)(=O)=O)ccc1Nc1cc(C)nc2ccc3[nH]ccc3c12
GI50 (786-0): > 100 µM (inactive)
GI50 (A498): > 100 µM (inactive)
GI50 (A549): > 100 µM (inactive)
GI50 (ACHN): > 100 µM (inactive)
GI50 (BT-549): > 100 µM (inactive)
GI50 (CAKI-1): > 100 µM (inactive)
GI50 (COLO 205): > 100 µM (inactive)
GI50 (DU-145): > 100 µM (inactive)
GI50 (EKVX): > 100 µM (inactive)
GI50 (HCT-116): > 100 µM (inactive)
GI50 (HCT-15): > 100 µM
GI50 (HL-60): > 100 µM (inactive)
GI50 (HOP-62): > 100 µM (inactive)
GI50 (HOP-92): > 100 µM (inactive)
GI50 (HT-29): > 100 µM (inactive)
GI50 (Hs-578T): > 100 µM (inactive)
GI50 (IGROV-1): > 100 µM (inactive)
GI50 (K562): > 100 µM (inactive)
GI50 (KM12): > 100 µM (inactive)
GI50 (LOX IMVI): > 100 µM (inactive)
GI50 (M14): > 100 µM (inactive)
GI50 (MCF7): > 100 µM (inactive)
GI50 (MDA-MB-231): > 100 µM (inactive)
GI50 (MDA-MB-435): > 100 µM (inactive)
GI50 (MDA-N): > 100 µM (inactive)
GI50 (NCI-H226): > 100 µM (inactive)
GI50 (NCI-H23): > 100 µM (inactive)
GI50 (NCI-H460): > 100 µM (inactive)
GI50 (NCI-H522): 8.69 µM (inactive)
GI50 (NCI/ADR-RES): > 100 µM (inactive)
GI50 (OVCAR-3): > 100 µM (inactive)
GI50 (OVCAR-4): > 100 µM (inactive)
GI50 (OVCAR-5): > 100 µM (inactive)
GI50 (OVCAR-8): > 100 µM (inactive)
GI50 (PC-3): > 100 µM (inactive)
GI50 (RPMI-8226): > 100 µM (inactive)
GI50 (SF-268): > 100 µM (inactive)
GI50 (SF-295): > 100 µM (inactive)
GI50 (SK-MEL-28): > 100 µM (inactive)
GI50 (SK-MEL-2): > 100 µM (inactive)
GI50 (SK-MEL-5): > 100 µM (inactive)
GI50 (SN12C): > 100 µM (inactive)
GI50 (SNB-19): > 100 µM (inactive)
GI50 (SW-620): > 100 µM (inactive)
GI50 (T47D): > 100 µM (inactive)
GI50 (TK-10): > 100 µM (inactive)
GI50 (U-251): > 100 µM (inactive)
GI50 (UACC-257): > 100 µM (inactive)
GI50 (UACC-62): > 100 µM (inactive)
GI50 (UO-31): > 100 µM (inactive)
